The NIST ThermoML archive (doi:10.1021/je2012555)

Columns and labels:
[1] = mn = molality of the nth substance listed, in mol/kg; conditions: 101 kPa, Liquid; for mass density: Vibrating tube method
[2] = cn = amount concentration of the nth substance listed, in mol/dm3; conditions: 298.15 K, 101 kPa, Liquid, Vibrating tube method

CNC(=O)[C@H](CC(C)C)NC(C)=O [(S)-2-acetamido-N,4-dimethylpentanamide] + O
[1]
Conditions | apparent molar heat capacity [J/K/mol] | mass density [kg/m3]
298.15 K, m1 = 0.0463 | 681 | –
298.15 K, m1 = 0.04684 | – | 997.65
298.15 K, m1 = 0.0559 | 682.8 | –
298.15 K, m1 = 0.07 | 682.5 | –
298.15 K, m1 = 0.08312 | – | 998.122
298.15 K, m1 = 0.0936 | 680.2 | –
298.15 K, m1 = 0.09402 | – | 998.23
298.15 K, m1 = 0.1007 | – | 998.343
298.15 K, m1 = 0.108 | – | 998.407
298.15 K, m1 = 0.1129 | 680 | –
298.15 K, m1 = 0.1157 | – | 998.565
298.15 K, m1 = 0.13 | – | 998.75
298.15 K, m1 = 0.1414 | – | 998.921
298.15 K, m1 = 0.1423 | 681.9 | –
298.15 K, m1 = 0.1613 | – | 999.112
303.15 K, m1 = 0.0463 | 683.5 | –
303.15 K, m1 = 0.0559 | 684.7 | –
303.15 K, m1 = 0.07 | 684.3 | –
303.15 K, m1 = 0.0936 | 682.6 | –
303.15 K, m1 = 0.1129 | 682.2 | –
303.15 K, m1 = 0.1423 | 684.4 | –
308.15 K, m1 = 0.0463 | 687.5 | –
308.15 K, m1 = 0.0559 | 688.6 | –
308.15 K, m1 = 0.07 | 687.3 | –
308.15 K, m1 = 0.0936 | 688.3 | –
308.15 K, m1 = 0.1129 | 686.7 | –
308.15 K, m1 = 0.1423 | 687.4 | –
313.15 K, m1 = 0.0463 | 690.1 | –
313.15 K, m1 = 0.0559 | 691.3 | –
313.15 K, m1 = 0.07 | 690.9 | –
313.15 K, m1 = 0.0936 | 690.3 | –
313.15 K, m1 = 0.1129 | 689.6 | –
313.15 K, m1 = 0.1423 | 691.1 | –
318.15 K, m1 = 0.0463 | 691.6 | –
318.15 K, m1 = 0.0559 | 692.3 | –
318.15 K, m1 = 0.07 | 692.3 | –
318.15 K, m1 = 0.0936 | 691.5 | –
318.15 K, m1 = 0.1129 | 691.7 | –
318.15 K, m1 = 0.1423 | 692.4 | –
323.15 K, m1 = 0.0463 | 693.1 | –
323.15 K, m1 = 0.0559 | 694.7 | –
323.15 K, m1 = 0.07 | 694.8 | –
323.15 K, m1 = 0.0936 | 693.4 | –
323.15 K, m1 = 0.1129 | 693.6 | –
323.15 K, m1 = 0.1423 | 694.8 | –
328.15 K, m1 = 0.0463 | 695.9 | –
328.15 K, m1 = 0.0559 | 696.8 | –
328.15 K, m1 = 0.07 | 696.9 | –
328.15 K, m1 = 0.0936 | 695.8 | –
328.15 K, m1 = 0.1129 | 697.5 | –
328.15 K, m1 = 0.1423 | 696.4 | –

CNC(=O)CNC(C)=O [2-acetamido-N-methylacetamide] + O
[1]
Conditions | apparent molar heat capacity [J/K/mol] | mass density [kg/m3]
298.15 K, m1 = 0.04565 | – | 998.056
298.15 K, m1 = 0.0479 | 328.9 | –
298.15 K, m1 = 0.05924 | – | 998.352
298.15 K, m1 = 0.0715 | 328.6 | –
298.15 K, m1 = 0.07804 | – | 998.754
298.15 K, m1 = 0.09293 | – | 999.062
298.15 K, m1 = 0.0958 | 327.8 | –
298.15 K, m1 = 0.0987 | – | 999.177
298.15 K, m1 = 0.1439 | 326 | –
298.15 K, m1 = 0.153 | – | 1000.32
298.15 K, m1 = 0.1615 | – | 1000.5
298.15 K, m1 = 0.1766 | – | 1000.79
298.15 K, m1 = 0.1889 | – | 1001.04
298.15 K, m1 = 0.1912 | 324 | –
303.15 K, m1 = 0.0479 | 334.9 | –
303.15 K, m1 = 0.0715 | 336.1 | –
303.15 K, m1 = 0.0958 | 334.3 | –
303.15 K, m1 = 0.1439 | 333.6 | –
303.15 K, m1 = 0.1912 | 330.6 | –
308.15 K, m1 = 0.0479 | 343 | –
308.15 K, m1 = 0.0715 | 343.3 | –
308.15 K, m1 = 0.0958 | 342.7 | –
308.15 K, m1 = 0.1439 | 343.1 | –
308.15 K, m1 = 0.1912 | 342.7 | –
313.15 K, m1 = 0.0479 | 349.6 | –
313.15 K, m1 = 0.0715 | 350 | –
313.15 K, m1 = 0.0958 | 349.6 | –
313.15 K, m1 = 0.1439 | 350.6 | –
313.15 K, m1 = 0.1912 | 350.9 | –
318.15 K, m1 = 0.0479 | 357 | –
318.15 K, m1 = 0.0715 | 358.4 | –
318.15 K, m1 = 0.0958 | 359.1 | –
318.15 K, m1 = 0.1439 | 358.2 | –
318.15 K, m1 = 0.1912 | 360 | –
323.15 K, m1 = 0.0479 | 360.1 | –
323.15 K, m1 = 0.0715 | 361.7 | –
323.15 K, m1 = 0.0958 | 361.6 | –
323.15 K, m1 = 0.1439 | 361.4 | –
323.15 K, m1 = 0.1912 | 363 | –
328.15 K, m1 = 0.0479 | 365.8 | –
328.15 K, m1 = 0.0715 | 366.7 | –
328.15 K, m1 = 0.0958 | 367.2 | –
328.15 K, m1 = 0.1439 | 369.7 | –
328.15 K, m1 = 0.1912 | 369.1 | –

CNC(=O)[C@H](C)NC(C)=O [(S)-2-acetamido-N-methylpropanamide] + O
[1]
Conditions | apparent molar heat capacity [J/K/mol] | mass density [kg/m3]
298.15 K, m1 = 0.02067 | – | 997.447
298.15 K, m1 = 0.04272 | – | 997.844
298.15 K, m1 = 0.0448 | 431 | –
298.15 K, m1 = 0.0545 | 429.7 | –
298.15 K, m1 = 0.0683 | 431.5 | –
298.15 K, m1 = 0.0751 | – | 998.437
298.15 K, m1 = 0.0909 | 429.6 | –
298.15 K, m1 = 0.1031 | – | 998.944
298.15 K, m1 = 0.1226 | – | 999.278
298.15 K, m1 = 0.1376 | 427.5 | –
298.15 K, m1 = 0.1431 | – | 999.644
298.15 K, m1 = 0.1816 | – | 1000.36
303.15 K, m1 = 0.0448 | 436.8 | –
303.15 K, m1 = 0.0545 | 437.5 | –
303.15 K, m1 = 0.0683 | 437.5 | –
303.15 K, m1 = 0.0909 | 437 | –
303.15 K, m1 = 0.1376 | 434.7 | –
308.15 K, m1 = 0.0448 | 444 | –
308.15 K, m1 = 0.0545 | 444.1 | –
308.15 K, m1 = 0.0683 | 442.3 | –
308.15 K, m1 = 0.0909 | 442.9 | –
308.15 K, m1 = 0.1376 | 442.4 | –
313.15 K, m1 = 0.0448 | 448 | –
313.15 K, m1 = 0.0545 | 447.7 | –
313.15 K, m1 = 0.0683 | 450.6 | –
313.15 K, m1 = 0.0909 | 450.6 | –
313.15 K, m1 = 0.1376 | 448.4 | –
318.15 K, m1 = 0.0448 | 453.6 | –
318.15 K, m1 = 0.0545 | 453.6 | –
318.15 K, m1 = 0.0683 | 453.3 | –
318.15 K, m1 = 0.0909 | 453.9 | –
318.15 K, m1 = 0.1376 | 453.5 | –
323.15 K, m1 = 0.0448 | 457.5 | –
323.15 K, m1 = 0.0545 | 458.3 | –
323.15 K, m1 = 0.0683 | 457.3 | –
323.15 K, m1 = 0.0909 | 458.2 | –
323.15 K, m1 = 0.1376 | 458 | –
328.15 K, m1 = 0.0448 | 459.8 | –
328.15 K, m1 = 0.0545 | 462.9 | –
328.15 K, m1 = 0.0683 | 462.4 | –
328.15 K, m1 = 0.0909 | 461.2 | –
328.15 K, m1 = 0.1376 | 461.5 | –

CNC(=O)[C@H](Cc1cnc[nH]1)NC(C)=O [N-acetyl-N'-methyl-L-alpha-histidinamide] + O
apparent molar heat capacity [J/K/mol], [1]
Conditions | m1 = 0.0546 | m1 = 0.0551 | m1 = 0.0616 | m1 = 0.0777 | m1 = 0.091 | m1 = 0.109 | m1 = 0.1358 | m1 = 0.137
298.15 K | 595.6 | 594.5 | 600.5 | 595.1 | 596.7 | 598.8 | 598.5 | 597.9
303.15 K | 606.8 | 610.2 | 612 | 609.8 | 608.7 | 610.9 | 612.6 | 608
308.15 K | 621.8 | 618.1 | 620.9 | 621.4 | 619.4 | 622.5 | 621 | 624.6
313.15 K | 634 | 628.9 | 631.6 | 629.5 | 635.5 | 630.5 | 637.1 | 631.6
318.15 K | 640.4 | 637 | 642.3 | 638 | 640.8 | 637.5 | 638.9 | 643.6
323.15 K | 648.2 | 652 | 651.7 | 648.2 | 646.7 | 654 | 650.6 | 650.9
328.15 K | 657.3 | 659.5 | 657 | 656.4 | 656.4 | 660.5 | 660 | 656

[2]
Conditions | mass density [kg/m3]
c1 = 0.03827 | 998.76
c1 = 0.04755 | 999.201
c1 = 0.04924 | 999.284
c1 = 0.05453 | 999.47
c1 = 0.05796 | 999.649
c1 = 0.06518 | 999.989
c1 = 0.0682 | 1000.14
c1 = 0.07517 | 1000.41
c1 = 0.07826 | 1000.59
c1 = 0.09152 | 1001.16
c1 = 0.0919 | 1001.16
c1 = 0.09948 | 1001.49
c1 = 0.1126 | 1002.02
c1 = 0.1188 | 1002.28
